The values below come from patent US5585367A (priority 1990, dated 1996).

Like-named read-outs stand apart in the source and are kept apart here.

Data set [1] concerns HIV-1. Format: cell-based.
Data set [2] concerns HIV-1. Type of data set: cell-based. The source holds these as a separate data set.
Data set [3] has as its system genes "GAG", "LTR" and "ENV" of the HIV-1 provirus. Description: Integration of viral genome into chromosomic DNA of Supt-1 cells (PCR). Format: cell-based. To be noted: HIV-1 treated with 1/100 dilution. As to the method: By means of a genetic amplification through a thermostable polymerase, the presence of genes "GAG", "LTR" and "ENV" of the HIV-1 provirus is evidenced. This method is called P.C.R. Polymerase chain Reaction) (Chin-Yih Ou et al., Sciences 239, 295-297, 1988).
Said method is applied for detecting HIV-1 provirus in the genome of Supt-1 cells inoculated with HIV-1 virus incubated with […] (dilution 1/100), as described in Example 8
Amplified oligonucleotides, UV visible by means of ethidium bromide appear only in the tubes corresponding to an inoculation with HIV-1 viruses which were not treated with the active substance.
One proceeds as in Example 11(c). The search of genes "GAG", "LTR" and "ENV" has been made in cellular cultures inoculated with a virus incubated for 15 minutes with the active substance. This search is appeared as being negative, and thus it can be concluded that 1.1'-azobisformamide at the dosage of 35 μgr/ml protects the cells against infection by HIV-1.
Examples 10c and 11c disclose a more accurate method than the ELISA test for examining whether the inoculated cells contain HIV-1 at the end of the assay, i.e., the PCR-Method.

The subject of data set [4] is lymphocyte cellular lines. The experiment in a line: Toxicity for human lymphocyte cellular lines. Format: cell-based. To be noted: even after 24 hours.
Data set [5] concerns Molt-3 cells infected by HTLVIII-B.
Data set [6] concerns human blood cell glutathione. To be noted: N. S. KOSOWER et al. (1969); cited from earlier work.
Data set [7] can be described thus: in vitro. To be noted: human, supt-1 cells.
Data set [8] in a line: in vitro. To be noted: human, molt-3 cells, % of dead cells.
The test system of data set [9] is HIV strain of the patient. Description: Resistance of the patient's HIV strain (course of treatment; gene sequencing of viral RNA). Conditions: for genetic resistance of the patient's strain: mutations in codons 67, 70, 184, 215 and 219; for resistance, concomitant medication: patient of Example 27, DDI, then DDI and DDC.
A further data set relates to wild HIV-1 strains. Description: Phenotypic resistance of wild HIV-1 strains. Format: cell-based. To be noted: strains marked * (Wild A, B, C, F, G).

With `CN(C)C(=O)N=NC(=O)N(C)C` [1.1'-azobisdimethylformamide], in the data set with HIV-1 [1], the “effectiveness up to the 25th day” value is on record as “effectiveness of this active substance is maintained”, the “infection of sound Supt-1 cells by treated HIV” value is reported as “is not able to infect the sound Supt-1 cells” and the “protection of Supt-1 cells” value is “has this effect”. The cytopathogenic effect entry in the data set with HIV-1 [2] is given as “no cytopathogenic effect was observed”. Further, the “HIV-1 provirus within Supt-1 cells” value in data set [3] was “totally absent”. The “toxicity for human lymphocyte cellular lines” value in data set [4] was “no toxicity”. For the same molecule, in the data set with Supt-1 cells, the “cellular viability of Supt-1 cells” value is recorded as “does not decrease the cellular viability”, the “toxicity against sound Supt-1 cells” value was “no toxicity against sound Supt-1 cells” and the “toxicity for human Supt-1 cells” value is given as “no toxicity”. In data set [5] (after 30 minutes, even at dilution 1/3000), the “mortality of the infected cells” value was “mortality of the infected cells is doubled”. In [5] (dilution 1/500, 1 min), the “Number of dead cells” value is reported as 9 and the “Number of living cells” value came to 62. Further, in [5] (dilution 1/500, 10 min), the “Number of dead cells” value was determined as 11 and the “Number of living cells” value was found to be 67. For the same molecule, in [5] (dilution 1/500, 30 min), the “Number of dead cells” value is recorded as 12 and the “Number of living cells” value is 58. In data set [5] (dilution 1/1500, 30 min), the “Number of dead cells” value is reported as 15 and the “Number of living cells” value was determined as 70. In data set [5] (dilution 1/3000, 30 min), the “Number of dead cells” value is given as 12 and the “Number of living cells” value is on record as 58. Also, the “% of dead cells” value in data set [5] (human, molt-3 cells, 0.5 h) worked out at 17.6%. The “intracellular oxidising action on human blood cell glutathione” value in [6] is “intracellular oxidising action on human blood cell glutathione”. Further, in “in vitro [7]”, the cytotoxicity at 0 h turned out to be 26%, the cytotoxicity at 1 h is 24% and the cytotoxicity at 5 h is 28%. For the same molecule, in the data set “in vitro [8]”, the cytotoxicity at 1 min was 12.7%, the cytotoxicity at 10 min was found to be 14% and the cytotoxicity at 0.5 h came out at 17.1%.

Regarding `Nc1ccn([C@@H]2CS[C@H](CO)O2)c(=O)n1` [3TC], the “genetic resistance of the patient's strain” value (“genetic resistance” below) in data set [9] was “genetically resistant”.

Turning to `Cc1cn([C@H]2C[C@H](N=[N+]=[N-])[C@@H](CO)O2)c(=O)[nH]c1=O` [AZT, 3'-azido-3'-desoxythymidine], the “phenotypic resistance to AZT” value in the data set on wild HIV-1 strains is on record as “Phenotypically resistant”. For the same molecule, in data set [9], the “genetic resistance” value is recorded as “genetically resistant”.

Consider `Nc1ccn([C@H]2CC[C@@H](CO)O2)c(=O)n1` [DDC], for which, in data set [9], the “genetic resistance” value is “genetically resistant” and the “resistance, concomitant medication” value is reported as “stopped because of resistance”.

In the case of `O=c1[nH]cnc2c1ncn2[C@H]1CC[C@@H](CO)O1` [DDI], in data set [9], the “genetic resistance” value was “genetically resistant” and the “resistance, concomitant medication” value is “stopped because of resistance”.
